# Experimental data reported in patent US20040063906A1, “Pna analogues” (priority 2000, published 2004).
# {LysNH2} = C-terminal lysine amide
# Tests used:
# [1] = tested on: 5′-r(U)10; experiment: Melting temperature (Tm) with 5′-r(U)10; type: binding; details: for Melting temperature (Tm), 5′-r(U)10 / Melting temperature (Tm), 5′-r(U)10, cooling curve: Table 2, medium salt buffer, pH 7.0; for Melting temperature (Tm), 5′-r(U)10: heating curve, 1 K/min; for Melting temperature (Tm), 5′-r(U)10, cooling curve: value in parentheses = cooling curve
# [2] = tested on: 5′-d(T)10; experiment: Melting temperature (Tm) with 5′-d(T)10; type: binding; details: for Melting temperature (Tm), 5′-d(T)10 / Melting temperature (Tm), 5′-d(T)10, cooling curve: Table 2; for Melting temperature (Tm), 5′-d(T)10 / Melting temperature (Tm), X = T: heating curve; for Melting temperature (Tm), 5′-d(T)10 / Melting temperature (Tm), 5′-d(T)10, cooling curve / Melting temperature (Tm), X = T: medium salt buffer, pH 7.0; for Melting temperature (Tm), 5′-d(T)10: 1 K/min; for Melting temperature (Tm), 5′-d(T)10, cooling curve / Melting temperature (Tm), X = T, cooling curve: value in parentheses = cooling curve; for Melting temperature (Tm), X = T / Melting temperature (Tm), X = T, cooling curve: Table 3, DNA target 5′-d(TTT-TXT-TTT-T)-3′
# [3] = tested on: DNA target 5′-d(TTT-TXT-TTT-T)-3′, X = C; experiment: Melting temperature (Tm) with mismatch DNA target, X = C; type: binding; details: Table 3; for Melting temperature (Tm), X = C: heating curve, medium salt buffer, pH 7.0; for Melting temperature (Tm), X = C, cooling curve: value in parentheses = cooling curve
# Source text: (§1) The complex between PNA 2110 and DNA was further evaluated.
# [4] = tested on: DNA target 5′-d(TTT-TXT-TTT-T)-3′, X = A; experiment: Melting temperature (Tm) with mismatch DNA target, X = A; type: binding; details: Table 3
# Source text: as §1
# [5] = tested on: DNA target 5′-d(TTT-TXT-TTT-T)-3′, X = G; experiment: Melting temperature (Tm) with mismatch DNA target, X = G; type: binding; details: Table 3; for Melting temperature (Tm), X = G: heating curve, medium salt buffer, pH 7.0; for Melting temperature (Tm), X = G, cooling curve: value in parentheses = cooling curve
# Source text: as §1
# [6] = tested on: 5′-r(U)10; details: earlier work (17); cited from earlier work
# [7] = tested on: poly A; experiment: Thermal denaturation (Tm) with poly A; type: binding; details: for Melting temperature (Tm), Poly A: measured from 10 to 90 °C, medium salt buffer, pH 7.0, 0.5 K/min; for Melting temperature (Tm), Poly A, measured from 90 to 10 °C: value in parentheses
# Source text: (§2) Binding. The binding of PNA 1164 and PNA 2121 to poly dA and poly A was studied by thermal denaturation (Tm, Table 4). Also listed are the values given by Hickman et. al. (29) The thermal stability results presented in Table 4 clearly indicate that a T5-PNA-oligomer having (2R, 4S)-pyrrolidine backbone (PNA 2121) forms stronger complexes with both poly dA and poly A as compared to the (2R, 4R)-pyrrolidine isomer (entry 3) and also compared to the parent aminoethylglycine PNA (PNA 1164, entry 1). These complexes are ascribed to triplexes and further studies on (pyrimidine-purine mixed sequences) pyrrolidine PNAs are required to establish whether the present results can be extended to duplex structures and are generally valid. Such studies are now in progress.
# [8] = tested on: poly dA; experiment: Thermal denaturation (Tm) with poly dA; type: binding; details: for Melting temperature (Tm), Poly dA: measured from 10 to 90 °C, medium salt buffer, pH 7.0, 0.5 K/min; for Melting temperature (Tm), Poly dA, measured from 90 to 10 °C: value in parentheses
# Source text: as §2
# [9] = tested on: DNA antiparallel: 5′-dAGA GTA TGA GTA-3′; experiment: Thermal stability (Tm) of complex with antiparallel DNA; type: binding; details: pH 7.0; for Tm, DNA antiparallel, down: medium salt buffer
# Method: (§3) The binding properties of pyr-PNA oligomer consisting of 10 monomers of the following sequence: H-CTC ATA CTC T-Lys-NH2 were investigated by measuring the thermal stability of the complexes formed with sequence complementary DNA and RNA, respectively, as compared to the stability for the corresponding aeg-PNA oligomer.
# (§4) The stability expressed as the melting temperature (Tm), defined as the temperature at which 50% of the complexes have been dissociated, was determined as described by Arghya Ray et al (32).
# (§5) Measured in medium salt buffer: 100 mM NaCl, 10 mM Na-phosphate, 0.1 mM EDTA, pH=7.0.
# [10] = tested on: RNA antiparallel: 5′-AGA GUA UGA GUA-3′; experiment: Thermal stability (Tm) of complex with antiparallel RNA; type: binding; details: medium salt buffer, pH 7.0
# Method: as §3, §4, §5
# [11] = tested on: DNA parallel: 5′-dATG AGT ATG AGA-3′; experiment: Thermal stability (Tm) of complex with parallel DNA; type: binding; details: medium salt buffer, pH 7.0
# Method: as §3, §4, §5
# [12] = tested on: complementary RNA oligomers; experiment: Melting temperature (Tm) with complementary RNA oligomer, Table 1; type: binding; details: medium salt buffer: 100 mM NaCl, 10 mM phosphate, 0.1 mM EDTA, pH 7.0; heating rate 1 K/min; UV 254 nm
# Method: (§6) Binding affinity. The binding affinity towards complementary RNA and DNA oligomers was measured by obtaining the Tm-curves (Table 1). As expected, incorporation of both the pyrrolidinone and the pyrrolidine analogue into the PNA strand results in destabilization against DNA and RNA compared to unmodified PNA (entry 1 vs. 2 and 3).
# [13] = tested on: complementary DNA oligomers; experiment: Melting temperature (Tm) with complementary DNA oligomer, Table 1; type: binding; details: medium salt buffer: 100 mM NaCl, 10 mM phosphate, 0.1 mM EDTA, pH 7.0; heating rate 1 K/min; UV 254 nm
# Method: as §6
# [14] = as opposed to the parent PNA 186
# [15] = compared with PNA 186 (Table 2, entry 1 and 3)
# [16] = melting curves at pH 9 (not shown)
substance,measurement,setting,value
H-(A#)10-LysNH2 [PNA 2110],"Melting temperature (Tm), 5′-r(U)10",[1],60.0 °C
same,"Melting temperature (Tm), 5′-r(U)10, cooling curve",[1],45.5 °C
same,Hysteresis of melting curves against RNA,[1]; [14],significant hysteresis was detected
same,ΔTm/mod towards RNA,[1]; [15],+2.5 °C
same,"Lowering of Tm at pH 9 instead of pH 7, against RNA",[1]; [16],~1.5 °C
same,"Melting temperature (Tm), 5′-d(T)10",[2],79.0 °C
same,"Melting temperature (Tm), 5′-d(T)10, cooling curve",[2],41.0 °C
same,"Melting temperature (Tm), X = T",[2],79.0 °C
same,"Melting temperature (Tm), X = T, cooling curve",[2],(41.0) °C
same,Hysteresis of melting curves against DNA,[2]; [14],significant hysteresis was detected
same,ΔTm/mod towards DNA,[2]; [15],+2.5 °C
same,Recognition of 5′-d(T)10 (sequence specificity),[2]; from mismatch Tm values of Table 3,sequence specific
same,"Lowering of Tm at pH 9 instead of pH 7, against DNA",[2]; [16],about 3.5 °C
same,"Melting temperature (Tm), X = C",[3],71.0 °C
same,"Melting temperature (Tm), X = C, cooling curve",[3],36.0 °C
same,"Melting temperature (Tm), X = A","[4]; heating curve, medium salt buffer, pH 7.0",67.5 °C
same,"Melting temperature (Tm), X = A, cooling curve",[4]; value in parentheses = cooling curve,35.5 °C
same,"Melting temperature (Tm), X = G",[5],68.5 °C
same,"Melting temperature (Tm), X = G, cooling curve",[5],37.0 °C
"H-(A*)10-LysNH2 [PNA 2020, reference compound]","Melting temperature (Tm), 5′-r(U)10",[1],25.5 °C
same,Tm depression per modification as compared to unmodified PNA against r(U)10,[6],1 °C
H-(T#)5-LysNH2 [PNA 2121],"Melting temperature (Tm), Poly A",[7],79.0 °C
same,"Melting temperature (Tm), Poly A, measured from 90 to 10 °C",[7],51.5 °C
same,"Melting temperature (Tm), Poly dA",[8],78.5 °C
same,"Melting temperature (Tm), Poly dA, measured from 90 to 10 °C",[8],44.0 °C
"H-(T)5-LysNH2 [PNA 1164, reference compound]","Melting temperature (Tm), Poly A",[7],64.0 °C
same,"Melting temperature (Tm), Poly A, measured from 90 to 10 °C",[7],58.5 °C
same,"Melting temperature (Tm), Poly dA",[8],53.0 °C
same,"Melting temperature (Tm), Poly dA, measured from 90 to 10 °C",[8],45.5 °C
"H-CTC ATA CTC T-Lys-NH2 [PNA 2232] (CTCATACTCT; all peptide nucleic acid (PNA), 3' {LysNH2}; further chemistry not fully specified) [pyr PNA oligomer of 10 monomers]","Tm, DNA antiparallel, down",[9],(58.0°) °C
same,"Tm, RNA antiparallel, down",[10],(41.0°) °C
same,"Tm, DNA parallel, down",[11],(61.5°) °C
"H-CTC ATA CTC T-Lys-NH2 [PNA 2244] (CTCATACTCT; all peptide nucleic acid (PNA), 3' {LysNH2}) [aeg PNA oligomer of 10 monomers, reference compound]","Tm, DNA antiparallel, down",[9],(43.0°) °C
same,"Tm, DNA antiparallel, up","[9]; medium salt buffer: 100 mM NaCl, 10 mM Na-phosphate, 0.1 mM EDTA",45.0° °C
same,"Tm, DNA parallel, down",[11],(43.5°) °C
same,"Tm, DNA parallel, up",[11],44.0° °C
"H-Gly-(A)10-NH2 [PNA 186, reference compound]","Melting temperature (Tm), 5′-r(U)10",[1],35.5 (35.5) °C
same,"Melting temperature (Tm), 5′-r(U)10, cooling curve",[1],35.5 (35.5) °C
same,"Melting temperature (Tm), 5′-d(T)10",[2],55.5 (55.5) °C
same,"Melting temperature (Tm), 5′-d(T)10, cooling curve",[2],55.5 (55.5) °C
same,"Melting temperature (Tm), X = T",[2],55.5 °C
same,"Melting temperature (Tm), X = T, cooling curve",[2],(55.5) °C
same,"Melting temperature (Tm), X = C",[3],36.5 (36.5) °C
same,"Melting temperature (Tm), X = C, cooling curve",[3],36.5 (36.5) °C
same,"Melting temperature (Tm), X = G",[5],40.5 (40.5) °C
same,"Melting temperature (Tm), X = G, cooling curve",[5],40.5 (40.5) °C
H-TAC-TCA#-TAC-TCT-LysNH2 [PNA 2104],"Melting temperature (Tm), RNA",[12],44.5 °C
same,"Melting temperature (Tm), DNA",[13],28.5 °C
"H-TAC-TCA*-TAC-TCT-LysNH2 (TACTCATACTCT; chemistry not fully specified) [PNA 2075, PNA dodecamer with one A* = (3S, 5R) pyrrolidone PNA monomer]","Melting temperature (Tm), RNA",[12],53.8 °C
same,"Melting temperature (Tm), DNA",[13],41.0 °C
"H-TAC-TCA-TAC-TCT-LysNH2 (TACTCATACTCT; all peptide nucleic acid (PNA), 3' {LysNH2}) [PNA 2005, unmodified PNA dodecamer]","Melting temperature (Tm), RNA",[12],59.5 °C
same,"Melting temperature (Tm), DNA",[13],49.5 °C
